Assay results taken from the NIST ThermoML archive (doi:10.1016/j.jct.2015.08.014).

Assay: xn = mol fraction of the nth substance listed
Details: 283.15 K, 100 kPa, Liquid, Alternating current cell with electrodes

CCCC[N+]1(C)CCCC1.N#CN=C=[N-] [1-butyl-1-methylpyrrolidinium dicyanamide] + O=C1CCCO1
electrical conductivity [S/m]
Details	Frequency=0.003 MHz	Frequency=0.00347222 MHz	Frequency=0.004 MHz	Frequency=0.00446429 MHz	Frequency=0.005 MHz	Frequency=0.005454 MHz	Frequency=0.006 MHz	Frequency=0.00652174 MHz	Frequency=0.00694444 MHz	Frequency=0.0075 MHz
x1 = 0.0463	–	1.17	1.17	1.17	1.17	1.17	1.17	1.17	1.17	1.17
x1 = 0.0987	–	1.73	1.73	1.73	1.73	1.73	1.73	1.73	1.73	1.73
x1 = 0.1449	–	1.93	1.93	1.93	1.93	1.93	1.93	1.93	1.93	1.93
x1 = 0.1859	2.028	2.028	2.028	2.028	2.028	2.028	2.028	2.028	2.028	2.028
x1 = 0.2493	1.925	1.925	1.926	1.926	1.926	1.926	1.926	1.926	1.926	1.926
x1 = 0.3029	1.84	1.84	1.84	1.84	1.84	1.84	1.84	1.84	1.84	1.84
x1 = 0.3845	1.66	1.66	1.66	1.66	1.66	1.66	1.66	1.66	1.66	1.66
x1 = 0.4985	1.407	1.407	1.407	1.407	1.407	1.407	1.407	1.407	1.407	1.407
x1 = 0.6954	1.07	1.07	1.07	1.07	1.07	1.07	1.07	1.07	1.07	1.07
x1 = 0.9013	0.849	0.849	0.849	0.849	0.849	0.849	0.849	0.849	0.849	0.849
x1 = 1	0.786	0.786	0.786	0.786	0.786	0.786	0.786	0.786	0.786	0.786
